Test results taken from patent publication US20160355457A1, “Solid Forms Comprising(-)-O-Desmethylvenlafaxine And Uses Thereof” (Sunovion Pharmaceuticals Inc., priority 2007, published 2016).

Tests used:
[1] = Moisture sorption/desorption (dynamic vapor sorption); assay type: physicochemical
Description: Moisture sorption/desorption data were collected on a VTI SGA-100 Vapor Sorption Analyzer. Sorption and desorption data were collected over a range of 5% to 95% relative humidity (RH) at 10% RH intervals under a nitrogen purge. For some samples, a step at 90% RH was added to the sorption cycle. Samples were not dried prior to analysis. Equilibrium criteria used for analysis were less than 0.0100% weight change in 5 minutes, with a maximum equilibration time of 3 hours if the weight criterion was not met. Data were not corrected for the initial moisture content of the samples. NaCl and PVP were used as calibration standards.

[2] = Stability properties of the solid form; assay type: physicochemical
[3] = decreased from 95% to 5% relative humidity
[4] = increased from 5% to 95% relative humidity

Compound	loss in mass on decreasing relative humidity (dynamic vapor sorption) [1, 3]	gain in mass on increasing relative humidity (dynamic vapor sorption) [1, 4]	other results
CN(C)C[C@@H](c1ccc(O)cc1)C1(O)CCCCC1.Cl [Form A, (−)-1-[2-(dimethylamino)-1-(4-hydroxyphenyl)ethyl]cyclohexanol hydrochloride salt]	–	–	loss in mass on decreasing relative humidity (dynamic vapor sorption) ([1]; decreased from 90% to 5% relative humidity): about 1%; gain in mass on increasing relative humidity (dynamic vapor sorption) ([1]; increased from 5% to 90% relative humidity, hydrochloride salt): < 1%; stability properties [2]: excellent stability properties
CN(C)C[C@@H](c1ccc(O)cc1)C1(O)CCCCC1.Cl [Form B, monohydrochloride salt of (−)-O-desmethylvenlafaxine]	about 26%	about 25%	–
CN(C)C[C@@H](c1ccc(O)cc1)C1(O)CCCCC1.Cl [Form C, monohydrochloride salt of (−)-O-desmethylvenlafaxine]	about 27%	about 27%	–
CN(C)C[C@@H](c1ccc(O)cc1)C1(O)CCCCC1.Cl [Form E, monohydrochloride salt of (−)-O-desmethylvenlafaxine]	about 5.8%	about 4.7%	–
CN(C)C[C@@H](c1ccc(O)cc1)C1(O)CCCCC1.Cl [Form F, monohydrochloride salt of (−)-O-desmethylvenlafaxine]	about 33%	about 32%	–
CN(C)C[C@@H](c1ccc(O)cc1)C1(O)CCCCC1.Cl [Form G, monohydrochloride salt of (−)-O-desmethylvenlafaxine]	about 22%	about 23%	gain in mass on increasing relative humidity (dynamic vapor sorption) ([1]; increased from 5% to 90% relative humidity): about 3%
CN(C)C[C@@H](c1ccc(O)cc1)C1(O)CCCCC1.Cl [amorphous form, (−)-1-[2-(dimethylamino)-1-(4-hydroxyphenyl)ethyl]cyclohexanol monohydrochloride salt]	–	–	loss in mass on decreasing relative humidity (dynamic vapor sorption) ([1]; decreased from 95% to 5% relative humidity, monohydrochloride salt): about 32%; gain in mass on increasing relative humidity (dynamic vapor sorption) ([1]; increased from 5% to 95% relative humidity, monohydrochloride salt): about 36%
